Data published in patent US10669272B2, “Substituted naphthyridinone compounds useful as T cell activators” (BRISTOL-MYERS SQUIBB COMPANY, priority 2018, dated 2020).
Read-outs that look alike come from different tables or passages of the source.

Tests used:
human DGKα = molecular target: T1, human DGKα (Homo sapiens, UniProt P23743); assay: DGKα LIPGLO assay (extruded liposome substrate), in vitro DGK inhibition; format: biochemical; details: liposome (LIPGLO) assay; read-out: DGKa LIPGLO IC50
T1 construct: TVMV protease cleavage site (C); Hexa-His (C); made in house; host or cells: Sf9 insect cells (baculovirus, Bac-to-Bac)

human DGKζ = molecular target: T2, human DGKζ (Homo sapiens, UniProt Q13574); assay: DGKζ LIPGLO assay (extruded liposome substrate), in vitro DGK inhibition; format: biochemical; details: liposome (LIPGLO) assay; read-out: DGKz LIPGLO IC50
T2 construct: TVMV protease cleavage site (C); Hexa-His (C); made in house; host or cells: Sf9 insect cells (baculovirus, Bac-to-Bac)

[1] = tested on: OT-1 CD8+ T cells with SIINFEKL-loaded MC38 tumor cells; assay: Murine cytotoxic T lymphocyte assay (IFN-γ, OT-1 CTL with MC38 tumor cells); format: cell-based, mouse; details: read-out: msCTL INFg IC50
Outline: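 OT-1 CD8+ T cells, expanded 5 days with OVA peptide (1 μg/mL) and mIL2, pretreated 1 h with DGK inhibitors, then co-cultured overnight at 37° C at 1:10 with MC38 cells pulsed 3 h with 1 μg/mL SIINFEKL. IFN-γ in 24 h supernatant by AlphaLISA.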

naïve human CD8 T cells = assay: Human CD8 T cells IFN-γ assay; format: cell-based; details: normalized to 3 μM reference compound with anti-CD3 plus anti-CD28 as 100% activation, read-out: HuCD8 INFG Normalized EC50;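 further: Naïve human CD8 T cells stimulated with plate-bound anti-CD3 and soluble anti-CD28, IFN-γ in supernatant quantified by AlphaLISA and converted to pg/mL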
Human venous whole blood = assay: Human whole blood IFN-γ assay; format: cell-based; details: human whole blood, normalized to 3 μM reference compound with anti-CD3 plus anti-CD28 as 100% activation, read-out: INFg Whole Blood Normalized Agonist EC50;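 further: blood from healthy donors exposed to compound for 1 h before stimulation with anti-CD3 and anti-CD28 at 1 µg/mL each, IFN-γ quantified in supernatant by AlphaLISA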
Protocol: Human Whole Blood IFN-γ Assay
Human venous whole blood (22.5 μL per well), obtained from healthy donors, was pre-treated with compounds for one hour at 37° C. in a humidified 95% air/5% CO2 incubator. The blood was stimulated with 2.5 μL anti-human CD3 and anti-CD28 mAb at a final concentration of 1 μg/mL each for 24 hours at 37° C. IFN-γ in the supernatants was measured using AlphLISA kit (Cat # AL217).

T2 sequence (Q13574 with tags, fused parts or gaps isoform Q13574-4): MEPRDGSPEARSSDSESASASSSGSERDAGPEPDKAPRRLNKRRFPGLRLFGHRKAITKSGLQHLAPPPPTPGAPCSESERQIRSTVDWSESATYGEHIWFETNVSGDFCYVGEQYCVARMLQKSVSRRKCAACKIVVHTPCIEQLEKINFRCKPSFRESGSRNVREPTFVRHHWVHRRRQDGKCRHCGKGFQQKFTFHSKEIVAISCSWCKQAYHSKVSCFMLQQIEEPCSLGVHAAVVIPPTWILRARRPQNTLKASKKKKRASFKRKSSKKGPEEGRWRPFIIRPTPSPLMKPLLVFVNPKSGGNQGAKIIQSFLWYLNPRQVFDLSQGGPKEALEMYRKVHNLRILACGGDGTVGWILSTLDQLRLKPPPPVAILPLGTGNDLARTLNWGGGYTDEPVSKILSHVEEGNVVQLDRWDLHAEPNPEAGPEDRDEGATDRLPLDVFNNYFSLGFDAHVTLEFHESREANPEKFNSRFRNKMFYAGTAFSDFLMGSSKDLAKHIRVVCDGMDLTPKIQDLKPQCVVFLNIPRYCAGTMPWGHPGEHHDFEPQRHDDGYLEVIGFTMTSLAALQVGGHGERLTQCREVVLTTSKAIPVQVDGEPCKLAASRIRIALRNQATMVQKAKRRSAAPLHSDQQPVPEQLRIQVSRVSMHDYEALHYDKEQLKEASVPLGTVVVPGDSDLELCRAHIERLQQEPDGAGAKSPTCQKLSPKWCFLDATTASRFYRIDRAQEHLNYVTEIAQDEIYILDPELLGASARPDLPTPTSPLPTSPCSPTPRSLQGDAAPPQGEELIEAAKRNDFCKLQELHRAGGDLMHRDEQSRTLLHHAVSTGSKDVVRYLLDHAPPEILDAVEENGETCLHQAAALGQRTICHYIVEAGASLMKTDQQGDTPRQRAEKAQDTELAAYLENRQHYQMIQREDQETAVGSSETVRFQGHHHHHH
T1 sequence (P23743 with tags, fused parts or gaps): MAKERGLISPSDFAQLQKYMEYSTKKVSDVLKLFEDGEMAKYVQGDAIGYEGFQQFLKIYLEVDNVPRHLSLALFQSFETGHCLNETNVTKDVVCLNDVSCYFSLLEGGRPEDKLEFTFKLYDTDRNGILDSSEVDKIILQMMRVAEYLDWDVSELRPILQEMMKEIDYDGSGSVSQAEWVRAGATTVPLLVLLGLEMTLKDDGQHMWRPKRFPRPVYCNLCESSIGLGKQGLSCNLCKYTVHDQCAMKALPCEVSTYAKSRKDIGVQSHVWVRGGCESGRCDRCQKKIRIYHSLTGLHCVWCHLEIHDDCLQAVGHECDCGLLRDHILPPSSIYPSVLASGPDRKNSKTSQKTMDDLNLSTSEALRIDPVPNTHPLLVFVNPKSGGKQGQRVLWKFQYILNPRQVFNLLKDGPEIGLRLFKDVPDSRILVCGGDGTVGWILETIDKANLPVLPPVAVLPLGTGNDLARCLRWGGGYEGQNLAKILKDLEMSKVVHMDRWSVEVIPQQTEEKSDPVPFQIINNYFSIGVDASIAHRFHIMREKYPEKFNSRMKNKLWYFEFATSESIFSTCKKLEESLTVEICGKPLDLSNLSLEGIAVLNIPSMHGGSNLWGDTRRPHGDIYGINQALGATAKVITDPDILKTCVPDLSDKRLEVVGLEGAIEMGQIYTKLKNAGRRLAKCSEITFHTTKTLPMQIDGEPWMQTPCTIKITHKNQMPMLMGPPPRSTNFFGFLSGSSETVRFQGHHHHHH

## C[C@@H]1CN(c2cc(=O)n(C)c3ccc(C#N)nc23)[C@@H](C)CN1C(c1ccc(F)cc1)c1ccccn1 (single isomer, unassigned) [Example 197]
Human DGKα
  IC50: 0.2 µM
Human DGKζ
  IC50: 3.7 µM
[1]; Mus musculus, MC-38
  IC50: 0.082 µM
naïve human CD8 T cells; Homo sapiens, T-cell, 20 h
  EC50: 0.035 µM
Human venous whole blood; Homo sapiens, 24 h
  EC50: 1.1 µM

## Cn1c(=O)cc(N2CCN(C(c3ccc(F)cc3)c3ccc(F)cc3)C(C(C)(C)O)C2)c2nc(C#N)ccc21 (single isomer, unassigned) [Example 78, 8-(4-(bis(4-fluorophenyl)methyl)-3-(2-hydroxypropan-2-yl)piperazin-1-yl)-5-methyl-6-oxo-5,6-dihydro-1,5-naphthyridine-2-carbonitrile]
Human DGKα
  IC50: 18 µM
Human DGKζ
  IC50: 1.9 µM
[1]
  IC50: 2 µM
naïve human CD8 T cells
  EC50: 0.21 µM
Human venous whole blood; Homo sapiens, 24 h
  EC50: 8.4 µM

## C[C@@H]1CN(C(c2ccc(F)cc2)c2ccc(F)cc2)CCN1c1cc(=O)n(C)c2ccc(C#N)nc12 [Example 135, (R)-8-(4-(bis(4-fluorophenyl)methyl)-2-methylpiperazin-1-yl)-5-methyl-6-oxo-5,6-dihydro-1,5-naphthyridine-2-carbonitrile]
Human DGKα
  IC50: 110 µM
Human DGKζ
  IC50: 10 µM
[1]; Mus musculus, MC-38
  IC50: 3.6 µM
naïve human CD8 T cells; Homo sapiens, T-cell, 20 h
  EC50: 10 µM
Human venous whole blood; Homo sapiens, 24 h
  EC50: 61 µM

## Cc1c(N2CCN(C(c3ccc(F)cc3)c3ccc(F)cc3)[C@H](C)C2)c2nc(C#N)ccc2n(C)c1=O [Example 99, (R)-8-(4-(bis(4-fluorophenyl)methyl)-3-methylpiperazin-1-yl)-5,7-dimethyl-6-oxo-5,6-dihydro-1,5-naphthyridine-2-carbonitrile]
Human DGKα
  IC50: 7 µM
Human DGKζ
  IC50: 2.8 µM
[1]; Mus musculus, MC-38
  IC50: 1.2 µM
naïve human CD8 T cells; Homo sapiens, T-cell, 20 h
  EC50: 0.17 µM
Human venous whole blood; Homo sapiens, 24 h
  EC50: 2.8 µM

## C[C@H]1CN(c2c(C#N)c(=O)n(C)c3ccc(C#N)nc23)CCN1C(c1ccc(F)cc1)c1ccc(F)cc1 [Example 38, (S)-8-(4-(bis(4-fluorophenyl)methyl)-3-methylpiperazin-1-yl)-5-methyl-6-oxo-5,6-dihydro-1,5-naphthyridine-2,7-dicarbonitrile]
Human DGKα
  IC50: 2.2 µM
Human DGKζ
  IC50: 1.8 µM
[1]; Mus musculus, MC-38
  IC50: 0.078 µM
naïve human CD8 T cells; Homo sapiens, T-cell, 20 h
  EC50: 0.067 µM
Human venous whole blood; Homo sapiens, 24 h
  EC50: 3.2 µM

## COCC1CN(c2cc(=O)n(C)c3ccc(C#N)nc23)CCN1C(c1ccc(F)cc1)c1ccc(F)cc1 (single isomer, unassigned) [Example 93, 8-(4-(bis(4-fluorophenyl)methyl)-3-(methoxymethyl)piperazin-1-yl)-5-methyl-6-oxo-5,6-dihydro-1,5-naphthyridine-2-carbonitrile]
Human DGKα
  IC50: 4.3 µM
Human DGKζ
  IC50: 0.68 µM
[1]
  IC50: 0.081 µM
naïve human CD8 T cells
  EC50: 0.063 µM
Human venous whole blood
  EC50: 1.4 µM

## CC[C@@H]1CN(c2cc(=O)n(C)c3ccc(C#N)nc23)CCN1C(c1ccc(F)cc1)c1ccc(F)cc1 [Example 172, (R)-8-(4-(bis(4-fluorophenyl)methyl)-3-ethylpiperazin-1-yl)-5-methyl-6-oxo-5,6-dihydro-1,5-naphthyridine-2-carbonitrile]
Human DGKα
  IC50: 1.9 µM
Human DGKζ
  IC50: 1.4 µM
[1]; Mus musculus, MC-38
  IC50: 0.039 µM
naïve human CD8 T cells; Homo sapiens, T-cell, 20 h
  EC50: 0.036 µM
Human venous whole blood; Homo sapiens, 24 h
  EC50: 1.3 µM

## Cn1c(=O)cc(N2CCN(C(c3ccc(F)cc3)c3ccc(F)cc3)C(C(N)=O)C2)c2nc(C#N)ccc21 (single isomer, unassigned) [Example 42, 1-(bis(4-fluorophenyl)methyl)-4-(6-cyano-1-methyl-2-oxo-1,2-dihydro-1,5-naphthyridin-4-yl)piperazine-2-carboxamide]
Human DGKα
  IC50: 180 µM
Human DGKζ
  IC50: 9.7 µM
[1]; Mus musculus, MC-38
  IC50: 2.6 µM
naïve human CD8 T cells
  EC50: 0.61 µM
Human venous whole blood; Homo sapiens, 24 h
  EC50: 3.1 µM

## COC(=O)C1CN(c2cc(=O)n(C)c3ccc(C#N)nc23)CCN1C(c1ccc(F)cc1)c1ccc(F)cc1 (centres unmarked) [Example 27, Methyl 1-(bis(4-fluorophenyl)methyl)-4-(6-cyano-1-methyl-2-oxo-1,2-dihydro-1,5-naphthyridin-4-yl)piperazine-2-carboxylate]
Human DGKα
  IC50: 240 µM
Human DGKζ
  IC50: 1.7 µM
[1]; Mus musculus, MC-38
  IC50: 0.064 µM
naïve human CD8 T cells; Homo sapiens, T-cell, 20 h
  EC50: 0.062 µM
Human venous whole blood; Homo sapiens
  EC50: 0.52 µM

## C[C@@H]1CN(c2c(Br)c(=O)n(C)c3ccc(C#N)nc23)[C@@H](C)CN1C(c1ccc(F)cc1)c1ccc(F)cc1 [Example 19, 8-((2S,5R)-4-(bis(4-fluorophenyl)methyl)-2,5-dimethylpiperazin-1-yl)-7-bromo-5-methyl-6-oxo-5,6-dihydro-1,5-naphthyridine-2-carbonitrile]
Human DGKα
  IC50: 42 µM
Human DGKζ
  IC50: 240 µM
[1]; Mus musculus, MC-38
  IC50: 8.7 µM
naïve human CD8 T cells; Homo sapiens, T-cell, 20 h
  EC50: 10 µM
Human venous whole blood; Homo sapiens, 24 h
  EC50: 20 µM

## COC(=O)C1CN(c2cc(=O)n(C)c3ccc(C#N)nc23)CCN1C(c1ccc(Cl)cc1)c1ccc(Cl)cc1 (single isomer, unassigned) [Example 97, methyl 1-(bis(4-chlorophenyl)methyl)-4-(6-cyano-1-methyl-2-oxo-1,2-dihydro-1,5-naphthyridin-4-yl)piperazine-2-carboxylate]
Human DGKα
  IC50: 14 µM
Human DGKζ
  IC50: 1.7 µM
[1]; Mus musculus, MC-38
  IC50: 0.096 µM
naïve human CD8 T cells; Homo sapiens, T-cell, 20 h
  EC50: 0.057 µM
Human venous whole blood
  EC50: 1.7 µM

## COCC1CN(c2cc(=O)n(C)c3ccc(C#N)nc23)CCN1C(c1ccc(F)cc1)c1ccc(F)cc1 (single isomer, unassigned) [Example 92, 8-(4-(bis(4-fluorophenyl)methyl)-3-(methoxymethyl)piperazin-1-yl)-5-methyl-6-oxo-5,6-dihydro-1,5-naphthyridine-2-carbonitrile]
Human DGKα
  IC50: 96 µM
Human DGKζ
  IC50: 5.4 µM
[1]
  IC50: 0.69 µM
naïve human CD8 T cells
  EC50: 9.7 µM
Human venous whole blood
  EC50: 9 µM

## C[C@@H]1CN(c2cc(=O)n(C)c3ccc(C#N)nc23)[C@@H](C)CN1C(c1ccc(F)cc1)c1ccc(Cl)cc1 (single isomer, unassigned) [Example 303]
Human DGKα
  IC50: 0.5 µM
Human DGKζ
  IC50: 0.69 µM
[1]
  IC50: 0.057 µM
naïve human CD8 T cells
  EC50: 0.16 µM
Human venous whole blood
  EC50: 0.65 µM
